Assay results reported in patent US6706663B2, “Herbicidal 3-heterocyclic substituted benzisothiazole and benzisoxazole compounds” (Wyeth, priority 2000, dated 2004).

Columns and labels:
[1] = test system: ABUTH (Abutilon theophrasti); test: Postemergence herbicidal evaluation; type: in vivo, Medic.
Method in brief: (§1)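 Seedlings grown about two weeks in flats, sprayed, then kept under standard greenhouse care. Rated visually 4–5 weeks after treatment on a 0–9 scale (stand, vigour, malformation, size, chlorosis, overall appearance) relative to untreated control; repeat tests averaged.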

[2] = test system: AMBEL (Ambrosia artemisifolia); test: Postemergence herbicidal evaluation; type: in vivo, L.
Method in brief: as §1

[3] = test system: CASOB (Cassia obtusifolia); test: Postemergence herbicidal evaluation; type: in vivo, L.
Method in brief: as §1

[4] = test system: CHEAL (Chenopodium album); test: Postemergence herbicidal evaluation; type: in vivo, L.
Method in brief: as §1

GALAP (Galium aparine) [5] = test: Postemergence herbicidal evaluation; type: in vivo
Method in brief: as §1

[6] = test system: IPOHE (Ipomoea hederacea); test: Postemergence herbicidal evaluation; type: in vivo, (L.) Jacq.
Method in brief: as §1

[7] = test system: GLXMAW (Soybean, Williams); test: Postemergence herbicidal evaluation; type: in vivo, Glycine max, (L.) Merr. cv Williams
Method in brief: as §1

ORYSAT (Rice, Tebonnet) [8] = test: Postemergence herbicidal evaluation; type: in vivo, Oryza sativa, (L.) Tebonnet
Method in brief: as §1

ZEAMX (Corn, Field) = test: Postemergence herbicidal evaluation; type: in vivo, Zea mays, L.
Method in brief: as §1

GALAP (Galium aparine) [9] = test: Preemergence herbicidal evaluation; type: in vivo; settings: preemergence, rated 4-5 weeks after treatment
Method in brief: (§2)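 Scores (0–9) reflect visual comparison with control plants for stand, vigor, malformation, size and chlorosis. Seeds in potting soil received a post-planting spray of compound in aqueous acetone and grew in a greenhouse until assessment 4–5 weeks later.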

[10] = test system: ECHCG (Echinochloa crus-galli); test: Preemergence herbicidal evaluation; type: in vivo, (L.) Beau; settings: preemergence, rated 4-5 weeks after treatment
Method in brief: as §2

SETVI (Setaria viridis) = test: Preemergence herbicidal evaluation; type: in vivo, (L.) Beau; settings: preemergence, rated 4-5 weeks after treatment
Method in brief: as §2

ORYSAT (Rice, Tebonnet) [11] = test: Preemergence herbicidal evaluation; type: in vivo, Oryza sativa, (L.) Tebonnet; settings: preemergence, rated 4-5 weeks after treatment
[12] = test system: TRZAWR (Wheat, Winter, cv Riband); test: Preemergence herbicidal evaluation; type: in vivo, Triticum aestivum; settings: preemergence, rated 4-5 weeks after treatment
Method in brief: as §2

In the case of `Cc1nnc(-c2nsc3ccc(-n4c(=O)cc(C(F)(F)F)n(C)c4=O)cc23)s1` [Compound 17, 1-methyl-3-[3-(5-methyl-1,3,4-thiadiazol-2-yl)-1,2-benzisothiazol-5-yl]-6-(trifluoromethyl)uracil], the “Postemergence herbicidal rating, ABUTH” value ([1]; rate 0.0320 kg/ha) is reported as 9.0, the “Postemergence herbicidal rating, ABUTH” value ([1]; rate 0.0620 kg/ha) is reported as 9.0 and the “Postemergence herbicidal rating, ABUTH” value ([1]; rate 0.1250 kg/ha) is reported as 9.0. The “Postemergence herbicidal rating, ABUTH” value ([1]; rate 0.2500 kg/ha) was 9.0, the “Postemergence herbicidal rating, AMBEL” value ([2]; rate 0.0320 kg/ha) was 4.0 and the “Postemergence herbicidal rating, AMBEL” value ([2]; rate 0.0620 kg/ha) was 9.0. For the same compound, the “Postemergence herbicidal rating, AMBEL” value ([2]; rate 0.1250 kg/ha) was 9.0, the “Postemergence herbicidal rating, AMBEL” value ([2]; rate 0.2500 kg/ha) was 9.0 and the “Postemergence herbicidal rating, CASOB” value ([3]; rate 0.0320 kg/ha) was 0.0. The “Postemergence herbicidal rating, CASOB” value ([3]; rate 0.0620 kg/ha) was 0.0, the “Postemergence herbicidal rating, CASOB” value ([3]; rate 0.1250 kg/ha) was 2.0 and the “Postemergence herbicidal rating, CASOB” value ([3]; rate 0.2500 kg/ha) was 2.0. For the same compound, the “Postemergence herbicidal rating, CHEAL” value ([4]; rate 0.0320 kg/ha) was 3.0, the “Postemergence herbicidal rating, CHEAL” value ([4]; rate 0.0620 kg/ha) was 3.0 and the “Postemergence herbicidal rating, CHEAL” value ([4]; rate 0.1250 kg/ha) was 4.0. The “Postemergence herbicidal rating, CHEAL” value ([4]; rate 0.2500 kg/ha) was 9.0, the “Postemergence herbicidal rating, GALAP” value (GALAP (Galium aparine) [5]; rate 0.0320 kg/ha) was 1.0 and the “Postemergence herbicidal rating, GALAP” value (GALAP (Galium aparine) [5]; rate 0.0620 kg/ha) was 1.0. The “Postemergence herbicidal rating, GALAP” value (GALAP (Galium aparine) [5]; rate 0.1250 kg/ha) was 6.0, the “Postemergence herbicidal rating, GALAP” value (GALAP (Galium aparine) [5]; rate 0.2500 kg/ha) was 6.0 and the “Postemergence herbicidal rating, IPOHE” value ([6]; rate 0.0320 kg/ha) was 9.0. The “Postemergence herbicidal rating, IPOHE” value ([6]; rate 0.0620 kg/ha) was 9.0, the “Postemergence herbicidal rating, IPOHE” value ([6]; rate 0.1250 kg/ha) was 9.0 and the “Postemergence herbicidal rating, IPOHE” value ([6]; rate 0.2500 kg/ha) was 9.0. The “Postemergence herbicidal rating, GLXMAW” value ([7]; rate 0.0320 kg/ha) was 5.0, the “Postemergence herbicidal rating, GLXMAW” value ([7]; rate 0.0620 kg/ha) was 6.5 and the “Postemergence herbicidal rating, GLXMAW” value ([7]; rate 0.1250 kg/ha) was 8.0. For the same compound, the “Postemergence herbicidal rating, GLXMAW” value ([7]; rate 0.2500 kg/ha) was 8.5, the “Postemergence herbicidal rating, ORYSAT” value (ORYSAT (Rice, Tebonnet) [8]; rate 0.0320 kg/ha) was 1.0 and the “Postemergence herbicidal rating, ORYSAT” value (ORYSAT (Rice, Tebonnet) [8]; rate 0.0620 kg/ha) was 1.5. The “Postemergence herbicidal rating, ORYSAT” value (ORYSAT (Rice, Tebonnet) [8]; rate 0.1250 kg/ha) was 2.0, the “Postemergence herbicidal rating, ORYSAT” value (ORYSAT (Rice, Tebonnet) [8]; rate 0.2500 kg/ha) was 7.5 and the “Postemergence herbicidal rating, ZEAMX” value (ZEAMX (Corn, Field); rate 0.0320 kg/ha) was 4.0. The “Postemergence herbicidal rating, ZEAMX” value (ZEAMX (Corn, Field); rate 0.0620 kg/ha) was 4.0, the “Postemergence herbicidal rating, ZEAMX” value (ZEAMX (Corn, Field); rate 0.1250 kg/ha) was 4.0 and the “Postemergence herbicidal rating, ZEAMX” value (ZEAMX (Corn, Field); rate 0.2500 kg/ha) was 5.0. For the same compound, the “GALAP preemergence herbicidal rating” value (GALAP (Galium aparine) [9]; Rate 0.0620 kg/ha) was 7.0, the “GALAP preemergence herbicidal rating” value (GALAP (Galium aparine) [9]; Rate 0.1250 kg/ha) was 9.0 and the “GALAP preemergence herbicidal rating” value (GALAP (Galium aparine) [9]; Rate 0.2500 kg/ha) was 9.0. For the same compound, the “ECHCG preemergence herbicidal rating” value ([10]; Rate 0.0620 kg/ha) was 0.0, the “ECHCG preemergence herbicidal rating” value ([10]; Rate 0.1250 kg/ha) was 1.0 and the “ECHCG preemergence herbicidal rating” value ([10]; Rate 0.2500 kg/ha) was 5.0. The “SETVI preemergence herbicidal rating” value (SETVI (Setaria viridis); Rate 0.0620 kg/ha) was 0.0, the “SETVI preemergence herbicidal rating” value (SETVI (Setaria viridis); Rate 0.1250 kg/ha) was 9.0 and the “SETVI preemergence herbicidal rating” value (SETVI (Setaria viridis); Rate 0.2500 kg/ha) was 9.0. The “ORYSAT preemergence herbicidal rating” value (ORYSAT (Rice, Tebonnet) [11]; Rate 0.0620 kg/ha) was 0.0, the “ORYSAT preemergence herbicidal rating” value (ORYSAT (Rice, Tebonnet) [11]; Rate 0.1250 kg/ha) was 0.0 and the “ORYSAT preemergence herbicidal rating” value (ORYSAT (Rice, Tebonnet) [11]; Rate 0.2500 kg/ha) was 1.0. For the same compound, the “TRZAWR preemergence herbicidal rating” value ([12]; Rate 0.0620 kg/ha) was 0.0, the “TRZAWR preemergence herbicidal rating” value ([12]; Rate 0.1250 kg/ha) was 0.0 and the “TRZAWR preemergence herbicidal rating” value ([12]; Rate 0.2500 kg/ha) was 5.0.
In the case of `CN(C(=O)c1nsc2ccc(-n3c(=O)cc(C(F)(F)F)n(C)c3=O)cc12)c1ccc(Cl)cc1` [Compound 18, 1,2-benzisothiazole-3-carboxanilide, 4′-chloro-5-[3,6-dihydro-3-methyl-2,6-dioxo-4-(trifluoromethyl)-1(2H)-pyrimidinyl]-N-methyl-], the “Postemergence herbicidal rating, ABUTH” value ([1]; rate 0.0320 kg/ha) is reported as 9.0, the “Postemergence herbicidal rating, ABUTH” value ([1]; rate 0.0620 kg/ha) is reported as 9.0 and the “Postemergence herbicidal rating, ABUTH” value ([1]; rate 0.1250 kg/ha) is reported as 9.0. For the same compound, the “Postemergence herbicidal rating, ABUTH” value ([1]; rate 0.2500 kg/ha) was 9.0, the “Postemergence herbicidal rating, AMBEL” value ([2]; rate 0.0320 kg/ha) was 2.0 and the “Postemergence herbicidal rating, AMBEL” value ([2]; rate 0.0620 kg/ha) was 9.0. For the same compound, the “Postemergence herbicidal rating, AMBEL” value ([2]; rate 0.1250 kg/ha) was 9.0, the “Postemergence herbicidal rating, AMBEL” value ([2]; rate 0.2500 kg/ha) was 9.0 and the “Postemergence herbicidal rating, CASOB” value ([3]; rate 0.0320 kg/ha) was 0.0. For the same compound, the “Postemergence herbicidal rating, CASOB” value ([3]; rate 0.0620 kg/ha) was 1.0, the “Postemergence herbicidal rating, CASOB” value ([3]; rate 0.1250 kg/ha) was 2.0 and the “Postemergence herbicidal rating, CASOB” value ([3]; rate 0.2500 kg/ha) was 6.0. The “Postemergence herbicidal rating, CHEAL” value ([4]; rate 0.0320 kg/ha) was 7.0, the “Postemergence herbicidal rating, CHEAL” value ([4]; rate 0.0620 kg/ha) was 7.0 and the “Postemergence herbicidal rating, CHEAL” value ([4]; rate 0.1250 kg/ha) was 7.0. The “Postemergence herbicidal rating, CHEAL” value ([4]; rate 0.2500 kg/ha) was 9.0, the “Postemergence herbicidal rating, GALAP” value (GALAP (Galium aparine) [5]; rate 0.0320 kg/ha) was 2.0 and the “Postemergence herbicidal rating, GALAP” value (GALAP (Galium aparine) [5]; rate 0.0620 kg/ha) was 4.0. The “Postemergence herbicidal rating, GALAP” value (GALAP (Galium aparine) [5]; rate 0.1250 kg/ha) was 6.0, the “Postemergence herbicidal rating, GALAP” value (GALAP (Galium aparine) [5]; rate 0.2500 kg/ha) was 9.0 and the “Postemergence herbicidal rating, IPOHE” value ([6]; rate 0.0320 kg/ha) was 9.0. For the same compound, the “Postemergence herbicidal rating, IPOHE” value ([6]; rate 0.0620 kg/ha) was 9.0, the “Postemergence herbicidal rating, IPOHE” value ([6]; rate 0.1250 kg/ha) was 9.0 and the “Postemergence herbicidal rating, IPOHE” value ([6]; rate 0.2500 kg/ha) was 9.0. For the same compound, the “Postemergence herbicidal rating, GLXMAW” value ([7]; rate 0.0320 kg/ha) was 6.0, the “Postemergence herbicidal rating, GLXMAW” value ([7]; rate 0.0620 kg/ha) was 8.0 and the “Postemergence herbicidal rating, GLXMAW” value ([7]; rate 0.1250 kg/ha) was 8.0. For the same compound, the “Postemergence herbicidal rating, GLXMAW” value ([7]; rate 0.2500 kg/ha) was 8.5, the “Postemergence herbicidal rating, ORYSAT” value (ORYSAT (Rice, Tebonnet) [8]; rate 0.0320 kg/ha) was 2.0 and the “Postemergence herbicidal rating, ORYSAT” value (ORYSAT (Rice, Tebonnet) [8]; rate 0.0620 kg/ha) was 3.0. The “Postemergence herbicidal rating, ORYSAT” value (ORYSAT (Rice, Tebonnet) [8]; rate 0.1250 kg/ha) was 5.0, the “Postemergence herbicidal rating, ORYSAT” value (ORYSAT (Rice, Tebonnet) [8]; rate 0.2500 kg/ha) was 5.5 and the “Postemergence herbicidal rating, ZEAMX” value (ZEAMX (Corn, Field); rate 0.0320 kg/ha) was 5.0. The “Postemergence herbicidal rating, ZEAMX” value (ZEAMX (Corn, Field); rate 0.0620 kg/ha) was 5.0, the “Postemergence herbicidal rating, ZEAMX” value (ZEAMX (Corn, Field); rate 0.1250 kg/ha) was 5.5 and the “Postemergence herbicidal rating, ZEAMX” value (ZEAMX (Corn, Field); rate 0.2500 kg/ha) was 7.0. For the same compound, the “GALAP preemergence herbicidal rating” value (GALAP (Galium aparine) [9]; Rate 0.0620 kg/ha) was 0.0, the “GALAP preemergence herbicidal rating” value (GALAP (Galium aparine) [9]; Rate 0.1250 kg/ha) was 0.0 and the “GALAP preemergence herbicidal rating” value (GALAP (Galium aparine) [9]; Rate 0.2500 kg/ha) was 9.0. For the same compound, the “ECHCG preemergence herbicidal rating” value ([10]; Rate 0.0620 kg/ha) was 0.0, the “ECHCG preemergence herbicidal rating” value ([10]; Rate 0.1250 kg/ha) was 2.0 and the “ECHCG preemergence herbicidal rating” value ([10]; Rate 0.2500 kg/ha) was 9.0. For the same compound, the “SETVI preemergence herbicidal rating” value (SETVI (Setaria viridis); Rate 0.0620 kg/ha) was 8.0, the “SETVI preemergence herbicidal rating” value (SETVI (Setaria viridis); Rate 0.1250 kg/ha) was 9.0 and the “SETVI preemergence herbicidal rating” value (SETVI (Setaria viridis); Rate 0.2500 kg/ha) was 9.0. For the same compound, the “ORYSAT preemergence herbicidal rating” value (ORYSAT (Rice, Tebonnet) [11]; Rate 0.0620 kg/ha) was 0.0, the “ORYSAT preemergence herbicidal rating” value (ORYSAT (Rice, Tebonnet) [11]; Rate 0.1250 kg/ha) was 5.0 and the “ORYSAT preemergence herbicidal rating” value (ORYSAT (Rice, Tebonnet) [11]; Rate 0.2500 kg/ha) was 8.0. For the same compound, the “TRZAWR preemergence herbicidal rating” value ([12]; Rate 0.0620 kg/ha) was 0.0, the “TRZAWR preemergence herbicidal rating” value ([12]; Rate 0.1250 kg/ha) was 4.0 and the “TRZAWR preemergence herbicidal rating” value ([12]; Rate 0.2500 kg/ha) was 8.0.
